Assay results from patent US11166972B2, “Compositions comprising nicotinamide riboside and a urolithin” (Amazentis SA, priority 2015, dated 2021).

Test system: mitochondrial respiratory subunits proteins in C2C12 myoblasts
Test: Western blot of mitochondrial respiratory subunits proteins in C2C12 myoblasts (Example 6)
Type: cell-based
Conditions: 48 hours
Protocol: C2C12 myoblasts were cultured in Dulbecco's modified Eagle's medium (DMEM) including 4.5 g/L glucose, 10% fetal calf serum, and 50 μg/mL gentamicin. Urolithin A (UA) was dissolved in DMSO in a stock solution of 50 mM. Nicotinamide riboside (NR) in the form of the triflate salt was dissolved in double-distilled water in a stock solution of 1 M. One hundred thousand cells were plated at time 0 hours in 6-wells plates. A total of 3 wells was used per condition (n=3 per group). Cells were treated in a volume of 2 ml for a period of 48 hours at final concentrations of (a) DMSO 0.1%, (b) 25 μM UA, (c) 0.1 mM NR, (d) 1 mM NR, (e) 25 μM UA+0.1 mM NR and (f) 25 μM UA+1 mM NR. At the end of the treatment, cells were lysed with cell lysis buffer (#9803, Cell signalling) containing protease (cOmplete™, Roche) and phosphatase inhibitor (PhosSTOP™, Roche) and applied to Invitrogen NuPage® Novex® Gel System (Bis-Tris Protein Gels −4-12%, Thermo fisher Scientific). Protein levels were examined for mitochondrial respiratory subunits, including mitochondrially encoded cytochrome c oxidase I (MTCO1), succinate dehydrogenase complex flavoprotein subunit A (SDHA) and B (SDHB), ubiquinol-cytochrome c reductase core protein II (UQCRC2) and ATP synthase, H+ transporting, mitochondrial F1 complex, alpha subunit 1 (ATP5A). The housekeeping protein tubulin-α was measured as a loading control. Detection of the proteins was performed using an Azure c300 (Azure biosystem) (FIG. 1B). Western Blot images were representative of the three biological replicates. Experiments were repeated at least 2 times. Bands were quantified using ImageJ software. The heatmap of the band intensities was drawn using GEN-E (Broad Institute) conditional formatting. Control DMSO values were set to one (FIG. 1A).

Molecule	ATP5A protein level, change vs DMSO control (UA 25 μM alone)	MT-CO1 protein level, change vs DMSO control (UA 25 μM alone, increase)	SDHA protein level, change vs DMSO control (UA 25 μM alone, increase)	SDHB protein level, change vs DMSO control (UA 25 μM alone, increase)	UQCRC2 protein level, change vs DMSO control (UA 25 μM alone, increase)	ATP5A protein level, change vs DMSO control (NR 0.1 mM)	SDHB protein level, change vs DMSO control (NR 0.1 mM)	MT-CO1 protein level, change vs DMSO control (NR 0.1 mM, decrease (printed −≈10%))	SDHA protein level, change vs DMSO control (NR 0.1 mM, increase)	UQCRC2 protein level, change vs DMSO control (NR 0.1 mM, increase (+≈))	SDHB protein level, change vs DMSO control (NR 1 mM)	ATP5A protein level, decrease vs DMSO control (NR 1 mM, decrease) [%]	MT-CO1 protein level, change vs DMSO control (NR 1 mM, decrease (printed −≈10%))	SDHA protein level, change vs DMSO control (NR 1 mM, increase)	UQCRC2 protein level, change vs DMSO control (NR 1 mM, increase (+≈))
O=c1oc2cc(O)ccc2c2ccc(O)cc12 [UA, Urolithin A]	no change	+14%	+54%	+10%	+26%										
Nicotinamide riboside [NR]						no effect	no change	≈ 10%	≈ 100%	≈ 10%	no change	20	≈ 10%	≈ 100%	≈ 10%
